In US8450313B2, “2,3-diaryl- or heteroaryl-substituted 1,1,1-trifluoro-2-hydroxypropyl compounds” (Hoffmann-La Roche Inc., priority 2009, dated 2013) one finds Ki data, which are given here for 18 molecules.

The target in the assay is T1, full length human recombinant glucocorticoid receptor (Homo sapiens, UniProt P04150).
T1 construct: It contains some partially purified full length human recombinant glucocorticoid receptor; purchased Panvera/Invitrogen PV4302
T1 sequence (P04150 1-777): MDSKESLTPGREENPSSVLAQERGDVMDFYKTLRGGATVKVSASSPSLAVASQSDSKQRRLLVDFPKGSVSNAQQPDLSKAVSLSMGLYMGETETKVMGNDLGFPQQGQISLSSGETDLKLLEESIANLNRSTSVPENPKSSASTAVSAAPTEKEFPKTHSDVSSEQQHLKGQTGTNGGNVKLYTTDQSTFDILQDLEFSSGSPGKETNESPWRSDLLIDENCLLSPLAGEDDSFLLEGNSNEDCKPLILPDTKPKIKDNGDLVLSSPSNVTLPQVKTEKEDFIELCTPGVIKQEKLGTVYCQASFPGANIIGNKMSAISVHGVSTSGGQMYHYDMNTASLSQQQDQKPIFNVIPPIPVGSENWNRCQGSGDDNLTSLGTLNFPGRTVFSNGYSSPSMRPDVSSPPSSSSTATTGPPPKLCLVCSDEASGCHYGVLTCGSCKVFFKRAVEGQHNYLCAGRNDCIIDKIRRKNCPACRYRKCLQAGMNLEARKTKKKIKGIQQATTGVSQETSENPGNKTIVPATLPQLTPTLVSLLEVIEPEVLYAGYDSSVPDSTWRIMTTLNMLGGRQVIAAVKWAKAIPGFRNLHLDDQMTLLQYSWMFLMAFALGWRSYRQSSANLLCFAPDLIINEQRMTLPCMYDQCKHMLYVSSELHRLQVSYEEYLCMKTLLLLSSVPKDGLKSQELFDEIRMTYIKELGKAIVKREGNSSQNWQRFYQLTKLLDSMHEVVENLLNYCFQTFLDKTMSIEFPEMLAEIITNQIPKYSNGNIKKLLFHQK
The experiment in a line: Glucocorticoid Receptor Binding Assay (Glucocorticoid Receptor Competitor Assay far red kit, fluorescence polarization). The following applies: competition with fluorescent GR ligand Fluormone GS Far Red, 3 hours at 22° C., pH 7.4; Ki calculated from IC50 by Cheng-Prusoff. On the procedure: Glucocorticoid Receptor Binding Assay
The ability of the substances to bind to the glucocorticoid receptor was determined with the help of a commercial Glucocorticoid Receptor Competitor Assay far red kit provided by Panvera/Invitrogen (PV4302). This kit is used as provided by the supplier. It contains some partially purified full length human recombinant glucocorticoid receptor, a coactivator related GR stabilizing peptide, a tight-binding fluorescent GR ligand Fluormone™ GS Far Red as labeled tracer and a screening buffer. All reagents are prepared and the assay is run according to the recommendations of the kit manufacturer.
Briefly, the GR stabilizing peptide and the human recombinant glucocorticoid receptor are both diluted with the screening buffer (pH 7.4) and are gently mixed (no vortexing) just before the assay and kept on ice until use. The fluorescent-labeled ligand is also diluted with the screening buffer just before the assay and kept on ice until use. The substances to test are pre-diluted in pure DMSO then some water is added to get an intermediate 4.2% DMSO stock solution. Ten microliter of the intermediate stock solution is gently mixed with 5 μA of diluted fluorescent-labeled ligand and 5 μl of diluted human recombinant glucocorticoid receptor in a 384-well plate (low volume, ultraclear, glass plate from Greiner ref 788896). The plate is centrifuged, sealed and incubated for 3 hours at 22° C. in the dark. The polarized fluorescence is measured with a Zeiss-HTS reader or any equivalent equipment (610-660 nm).
All compounds were tested to determine IC50 in a serial dilution experiment. The concentration at which 50% inhibition of the fluorescent GR ligand Fluormone™ GS Far Red is obtained (the IC50) is determined after fitting with a sigmoidal dose-response model of a plot of the logarithm of the concentration versus percent inhibition measured for the different concentrations. Ki's were calculated from IC50 based on Cheng-Prusoff equation (Cheng, Y, Prusoff, W H (1973) Biochem Pharmacol 22, 3099-3108): Ki=IC50/[1+D/Kd] wherein D is the concentration of the fluorescent ligand and Kd is the binding constant for the fluorescent ligand binding to the receptor under the conditions used in the competition experiment.

The term Ki denotes a measure of affinity in units of concentration, obtained from inhibition or displacement. Take `C[C@H](c1ccc(Oc2ccc(C(=O)O)nc2)cc1Cl)[C@@](O)(c1ccc2c(c1)n(C)c(=O)n2C)C(F)(F)F` (stereo in doubt) [Example 95, 5-{3-Chloro-4-[2-(1,3-dimethyl-2-oxo-2,3-dihydro-1H-benzoimidazol-5-yl)-3,3,3-trifluoro-2-hydroxy-1-methyl-propyl]-phenoxy}-pyridine-2-carboxylic acid]: the inhibition constant Ki was 5.3 nM.
As for `C[C@H](c1ccc(-c2ccc(OCC(=O)O)cc2)cc1Cl)[C@@](O)(c1ccc2oc(=O)n(C)c2c1)C(F)(F)F` (stereo in doubt) [Example 130, {3′-Chloro-4′-[3,3,3-trifluoro-2-hydroxy-1-methyl-2-(3-methyl-2-oxo-2,3-dihydro-benzooxazol-5-yl)-propyl]-biphenyl-4-yloxy}-acetic acid], the figure is 0.5 nM; as for `Cc1cc([C@@](O)([C@@H](C)c2ccc(Oc3cc(C(F)(F)F)c(C(=O)O)cn3)cc2Cl)C(F)(F)F)cc(C)c1C#N` (stereo in doubt) [Example 146, 6-{3-Chloro-4-[2-(4-cyano-3,5-dimethyl-phenyl)-3,3,3-trifluoro-2-hydroxy-1-methyl-propyl]-phenoxy}-4-trifluoromethyl-nicotinic acid], 1.4 nM.
As for `COC(=O)c1ccc(-c2ccc([C@@H](C)[C@@](O)(c3ccc4oc(=O)n(C)c4c3)C(F)(F)F)c(Cl)c2)cc1OC` (relative stereo) [Example 131, 3′-Chloro-3-methoxy-4′-[3,3,3-trifluoro-2-hydroxy-1-methyl-2-(3-methyl-2-oxo-2,3-dihydro-benzooxazol-5-yl)-propyl]-biphenyl-4-carboxylic acid methyl ester], the figure is 1.2 nM; as for `COC(=O)c1ccc(Oc2ccc([C@H](C)[C@](O)(c3cc(C)c(C#N)c(C)c3)C(F)(F)F)c(Cl)c2)cc1Cl` (stereo in doubt) [Example 143, 2-Chloro-4-{3-chloro-4-[2-(4-cyano-3,5-dimethyl-phenyl)-3,3,3-trifluoro-2-hydroxy-1-methyl-propyl]-phenoxy}-benzoic acid methyl ester], 1.7 nM; as for `C[C@H](c1ccc(C(=O)NCC(=O)OC(C)(C)C)cc1Cl)[C@@](O)(c1ccc2oc(=O)n(C)c2c1)C(F)(F)F` (stereo in doubt) [Example 231, {3-Chloro-4-[3,3,3-trifluoro-2-hydroxy-1-methyl-2-(3-methyl-2-oxo-2,3-dihydrobenzooxazol-5-yl)-propyl]-benzoylamino}-acetic acid tert-butyl ester], 6.9 nM.
The value for `COC(=O)c1cnc(Oc2ccc([C@@H](C)[C@@](O)(c3ccc4c(c3)N(C)C(=O)CO4)C(F)(F)F)c(Cl)c2)cn1` (racemic) [Example 227, 5-{3-Chloro-4-[3,3,3-trifluoro-2-hydroxy-1-methyl-2-(4-methyl-3-oxo-3,4-dihydro-2H-benzo[1,4]oxazin-6-yl)-propyl]-phenoxy}-pyrazine-2-carboxylic acid methyl ester] was 3 nM; that for `C[C@H](c1ccc(Oc2ccc(C(=O)O)c(C(F)(F)F)n2)cc1Cl)[C@@](O)(c1ccc2c(c1)N(C)C(=O)CO2)C(F)(F)F` (stereo in doubt) [Example 215, 6-{3-Chloro-4-[3,3,3-trifluoro-2-hydroxy-1-methyl-2-(4-methyl-3-oxo-3,4-dihydro-2H-benzo[1,4]oxazin-6-yl)-propyl]-phenoxy}-2-trifluoromethyl-nicotinic acid] was 1.4 nM.
Consider `CC(c1ccc(Oc2ccc(F)c(C(=O)O)c2)cc1Cl)C(O)(c1ccc2c(c1)n(C)c(=O)n2C)C(F)(F)F` (stereo not drawn) [Example 91, 5-{3-Chloro-4-[2-(1,3-dimethyl-2-oxo-2,3-dihydro-1H-benzoimidazol-5-yl)-3,3,3-trifluoro-2-hydroxy-1-methyl-propyl]phenoxy}-2-fluoro-benzoic acid], for which the Ki is 0.3 nM.
The value for `C[C@@H](c1ccc(C(=O)O)cc1Cl)[C@](O)(c1ccc2c(c1)N(C)C(=O)CO2)C(F)(F)F` (relative stereo) [Example 43, 3-Chloro-4-[3,3,3-trifluoro-2-hydroxy-1-methyl-2-(4-methyl-3-oxo-3,4-dihydro-2H-benzo[1,4]oxazin-6-yl)-propyl]-benzoic acid] was 261 nM; that for `C[C@H](c1ccc(-c2cccc(CC(=O)O)c2)cc1Cl)[C@@](O)(c1ccc2c(c1)n(C)c(=O)n2C)C(F)(F)F` (stereo in doubt) [Example 83, {3′-Chloro-4′-[2-(1,3-dimethyl-2-oxo-2,3-dihydro-1H-benzoimidazol-5-yl)-3,3,3-trifluoro-2-hydroxy-1-methyl-propyl]-biphenyl-3-yl}-acetic acid] was 2.2 nM.
As for `COC(=O)c1ccc(Oc2ccc(Cl)c([C@H](C)[C@](O)(c3ccc4c(c3)N(C)C(=O)CO4)C(F)(F)F)c2)cc1` (relative stereo) [Example 7, 4-{4-Chloro-3-[3,3,3-trifluoro-2-hydroxy-1-methyl-2-(4-methyl-3-oxo-3,4-dihydro-2H-benzo[1,4]oxazin-6-yl)-propyl]-phenoxy}-benzoic acid methyl ester], the figure is 11.1 nM; as for `C[C@H](c1ccc(-c2cncc(C(=O)O)c2)cc1Cl)[C@@](O)(c1ccc2oc(=O)n(C)c2c1)C(F)(F)F` (relative stereo) [Example 191, 5-{3-Chloro-4-[3,3,3-trifluoro-2-hydroxy-1-methyl-2-(3-methyl-2-oxo-2,3-dihydro-benzooxazol-5-yl)-propyl]-phenyl}-nicotinic acid], 1.4 nM.
The value for `CCN1C(=O)COc2ccc([C@@](O)([C@@H](C)c3ccc(Oc4ccc(C(=O)O)c(Cl)n4)cc3Cl)C(F)(F)F)cc21` (relative stereo) [Example 69, 2-Chloro-6-{3-chloro-4-[2-(4-ethyl-3-oxo-3,4-dihydro-2H-benzo[1,4]oxazin-6-yl)-3,3,3-trifluoro-2-hydroxy-1-methyl-propyl]-phenoxy}-nicotinic acid] was 35.9 nM; that for `C[C@H](c1ccc(-c2ccc(C(=O)O)c(F)c2)cc1Cl)[C@@](O)(c1ccc2oc(=O)n(C)c2c1)C(F)(F)F` (racemic) [Example 118, 3′-Chloro-3-fluoro-4′-[3,3,3-trifluoro-2-hydroxy-1-methyl-2-(3-methyl-2-oxo-2,3-dihydro-benzooxazol-5-yl)-propyl]-biphenyl-4-carboxylic acid] was 1 nM; that for `COC(=O)c1ccc(-c2ccc([C@H](C)[C@](O)(c3ccc4c(c3)N(C)C(=O)CO4)C(F)(F)F)c(Cl)c2)cc1Cl` (relative stereo) [Example 30, 3,3′-Dichloro-4′-[3,3,3-trifluoro-2-hydroxy-1-methyl-2-(4-methyl-3-oxo-3,4-dihydro-2H-benzo[1,4]oxazin-6-yl)-propyl]-biphenyl-4-carboxylic acid methyl ester] was 2 nM.
In the case of `COc1cc(Oc2ccc([C@@H](C)[C@@](O)(c3ccc4c(c3)n(C)c(=O)n4C)C(F)(F)F)c(Cl)c2)ccc1C(=O)O` (relative stereo) [Example 97, 4-{3-Chloro-4-[2-(1,3-dimethyl-2-oxo-2,3-dihydro-1H-benzoimidazol-5-yl)-3,3,3-trifluoro-2-hydroxy-1-methyl-propyl]-phenoxy}-2-methoxy-benzoic acid], the Ki was 5 nM.
The value for `C[C@H](c1ccc(Oc2cc(Cl)c(C(=O)O)cn2)cc1Cl)[C@@](O)(c1ccc2oc(=O)n(C)c2c1)C(F)(F)F` (relative stereo) [Example 185, 4-Chloro-6-{3-chloro-4-[3,3,3-trifluoro-2-hydroxy-1-methyl-2-(3-methyl-2-oxo-2,3-dihydro-benzooxazol-5-yl)-propyl]-phenoxy}-nicotinic acid] was 0.7 nM.
